# Where two headings read alike, the source gives them in different places.
# Experiments:
# Human PKa = Human PKa (Homo sapiens, UniProt P03952); experiment: biochemical; type: biochemical
# Rat pharmacokinetics = type: in vivo, Sprague-Dawley rats; settings: male, Sprague-Dawley, plasma, iv, 1 mg/kg
# Dog pharmacokinetics = type: in vivo, beagle dogs; settings: male, beagle, plasma, iv, 1 mg/kg
# [1] = Human plasma protein binding; type: in vitro ADME; settings: % bound
# trypsin = settings: read-out: IC50 / off target protease selectivity, trypsin
# tissue kallikrein (KLK1) = tissue kallikrein (KLK1) (Homo sapiens, UniProt P06870); experiment: biochemical; settings: IC50 / off target protease selectivity
# factor XIa = factor XIa (Homo sapiens, UniProt P03951); experiment: biochemical; settings: IC50 / off target protease selectivity, FXIa
# plasmin = plasmin (Homo sapiens, UniProt P00747); experiment: biochemical; settings: IC50 / off target protease selectivity
# thrombin = thrombin (Homo sapiens, UniProt P00734); experiment: biochemical; settings: IC50 / off target protease selectivity
# factor XIIa = target: T1, factor XIIa (Homo sapiens, UniProt P00748); experiment: biochemical; settings: IC50 / off target protease selectivity, FXIIa
# T1 sequence (P00748 373-615 limits assumed): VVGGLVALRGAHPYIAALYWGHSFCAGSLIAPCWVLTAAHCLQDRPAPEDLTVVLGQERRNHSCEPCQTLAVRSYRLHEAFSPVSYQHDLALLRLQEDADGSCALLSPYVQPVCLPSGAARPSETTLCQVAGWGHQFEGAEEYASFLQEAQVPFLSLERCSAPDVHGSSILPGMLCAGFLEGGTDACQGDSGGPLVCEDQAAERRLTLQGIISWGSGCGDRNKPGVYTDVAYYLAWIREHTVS
# panel of CYP450 enzymes = experiment: CYP450 inhibition panel as a whole; settings: up to 25 μM
# [2] = Thermodynamic solubility in FaSSIF / FaSSGF; type: physicochemical; settings: pH 6.5, solubility FaSSIF, theoretical concentration 1 mg/mL
# physchem = settings: aqueous buffer, kinetic from dmso stock
# tryptase = experiment: Protease selectivity, fluorogenic substrate cleavage assay; type: biochemical, human; settings: read-out: IC50 / off target protease selectivity, tryptase
# [3] = Measured pKa, PION UV-metric method; type: physicochemical
# bacterial mutagenicity = experiment: Non-GLP bacterial mutagenicity Ames test
# factor Xa = factor Xa (Homo sapiens, UniProt P00742); settings: read-out: IC50 / off target protease selectivity, FXa
# hERG channel = hERG channel (Homo sapiens, UniProt Q12809); experiment: hERG whole-cell patch clamp; settings: highest level tested 33 μM
# in vitro [4] = settings: human, Caco-2, pH 7.4
# in vitro [5] = settings: human, microsomes
# Chain of Human PKa (P03952 391-638 limits assumed): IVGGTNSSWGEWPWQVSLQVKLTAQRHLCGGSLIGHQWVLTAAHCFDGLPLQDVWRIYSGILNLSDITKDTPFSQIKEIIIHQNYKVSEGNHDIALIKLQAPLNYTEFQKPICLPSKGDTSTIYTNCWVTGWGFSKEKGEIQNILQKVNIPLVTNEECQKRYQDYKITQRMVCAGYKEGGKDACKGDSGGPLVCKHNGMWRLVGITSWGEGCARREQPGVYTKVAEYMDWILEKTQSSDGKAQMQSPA
# Chain of Human PKa (P03952 20-390 partner limits assumed): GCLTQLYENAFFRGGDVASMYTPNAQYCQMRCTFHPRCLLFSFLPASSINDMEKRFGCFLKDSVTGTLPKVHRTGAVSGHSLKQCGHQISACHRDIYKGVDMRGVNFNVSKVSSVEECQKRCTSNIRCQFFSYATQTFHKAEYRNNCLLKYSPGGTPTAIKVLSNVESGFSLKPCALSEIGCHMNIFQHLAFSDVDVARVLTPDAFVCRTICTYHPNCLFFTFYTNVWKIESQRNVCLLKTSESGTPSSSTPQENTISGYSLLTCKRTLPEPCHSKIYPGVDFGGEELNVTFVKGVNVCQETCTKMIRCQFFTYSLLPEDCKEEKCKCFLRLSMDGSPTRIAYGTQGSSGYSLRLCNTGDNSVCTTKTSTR
# Chain of factor XIa (P03951 388-625 limits assumed): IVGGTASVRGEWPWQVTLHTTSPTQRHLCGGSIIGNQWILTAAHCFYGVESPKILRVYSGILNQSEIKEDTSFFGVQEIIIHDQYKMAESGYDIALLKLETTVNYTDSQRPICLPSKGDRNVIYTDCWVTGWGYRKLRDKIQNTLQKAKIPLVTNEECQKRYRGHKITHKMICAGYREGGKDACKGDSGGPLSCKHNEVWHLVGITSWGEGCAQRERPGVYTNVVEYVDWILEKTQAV
# Chain of factor XIa (P03951 19-387 partner limits assumed): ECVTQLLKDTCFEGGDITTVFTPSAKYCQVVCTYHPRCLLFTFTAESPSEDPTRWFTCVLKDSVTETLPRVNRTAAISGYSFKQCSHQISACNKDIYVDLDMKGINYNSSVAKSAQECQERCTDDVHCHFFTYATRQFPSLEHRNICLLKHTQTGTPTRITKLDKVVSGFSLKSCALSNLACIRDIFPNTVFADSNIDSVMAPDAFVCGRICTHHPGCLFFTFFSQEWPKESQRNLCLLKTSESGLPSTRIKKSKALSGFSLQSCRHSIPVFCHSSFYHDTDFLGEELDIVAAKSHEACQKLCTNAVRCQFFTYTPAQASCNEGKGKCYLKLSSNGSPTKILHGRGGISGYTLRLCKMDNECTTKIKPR
# Chain of plasmin (P00747 581-810 limits assumed): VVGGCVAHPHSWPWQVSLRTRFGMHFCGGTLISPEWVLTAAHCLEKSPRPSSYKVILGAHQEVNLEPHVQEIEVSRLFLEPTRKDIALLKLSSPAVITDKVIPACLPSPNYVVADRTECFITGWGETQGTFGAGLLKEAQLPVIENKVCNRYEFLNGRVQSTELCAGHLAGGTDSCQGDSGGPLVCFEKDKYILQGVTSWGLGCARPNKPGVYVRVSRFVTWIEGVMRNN
# Chain of plasmin (P00747 97-580 partner limits assumed): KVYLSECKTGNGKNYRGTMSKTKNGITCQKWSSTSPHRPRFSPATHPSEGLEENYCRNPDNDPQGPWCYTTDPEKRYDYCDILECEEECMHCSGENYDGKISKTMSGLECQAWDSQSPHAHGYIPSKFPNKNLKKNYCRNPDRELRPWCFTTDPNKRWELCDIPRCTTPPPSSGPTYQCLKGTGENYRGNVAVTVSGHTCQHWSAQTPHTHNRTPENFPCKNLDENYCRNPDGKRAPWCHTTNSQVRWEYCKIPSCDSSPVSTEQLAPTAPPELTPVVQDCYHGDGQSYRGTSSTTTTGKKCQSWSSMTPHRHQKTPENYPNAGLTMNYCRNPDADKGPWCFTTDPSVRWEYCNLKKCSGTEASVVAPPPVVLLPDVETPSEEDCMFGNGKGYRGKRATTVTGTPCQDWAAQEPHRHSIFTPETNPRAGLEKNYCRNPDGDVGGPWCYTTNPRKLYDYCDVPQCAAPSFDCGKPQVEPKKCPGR
# Chain of tissue kallikrein (KLK1) (P06870 25-262): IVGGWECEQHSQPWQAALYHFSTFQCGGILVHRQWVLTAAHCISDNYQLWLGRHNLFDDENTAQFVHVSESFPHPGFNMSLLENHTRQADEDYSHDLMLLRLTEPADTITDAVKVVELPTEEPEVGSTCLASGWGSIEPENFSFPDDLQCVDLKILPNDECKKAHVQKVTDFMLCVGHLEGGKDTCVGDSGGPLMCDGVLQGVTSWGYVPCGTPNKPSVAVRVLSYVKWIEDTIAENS
# Chain of factor Xa (P00742 235-488 limits assumed): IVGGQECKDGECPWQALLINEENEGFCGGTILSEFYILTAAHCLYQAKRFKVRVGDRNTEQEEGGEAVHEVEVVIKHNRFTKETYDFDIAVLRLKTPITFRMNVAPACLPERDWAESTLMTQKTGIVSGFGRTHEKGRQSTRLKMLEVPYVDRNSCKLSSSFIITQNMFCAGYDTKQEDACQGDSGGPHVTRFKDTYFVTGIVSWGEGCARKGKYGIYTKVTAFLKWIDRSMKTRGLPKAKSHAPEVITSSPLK
# Chain of factor Xa (P00742 41-179 partner limits assumed): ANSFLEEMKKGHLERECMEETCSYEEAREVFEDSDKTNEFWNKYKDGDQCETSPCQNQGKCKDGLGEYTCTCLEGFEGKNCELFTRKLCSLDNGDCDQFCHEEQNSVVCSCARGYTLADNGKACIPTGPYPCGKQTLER
# Chain of hERG channel (Q12809 whole entry): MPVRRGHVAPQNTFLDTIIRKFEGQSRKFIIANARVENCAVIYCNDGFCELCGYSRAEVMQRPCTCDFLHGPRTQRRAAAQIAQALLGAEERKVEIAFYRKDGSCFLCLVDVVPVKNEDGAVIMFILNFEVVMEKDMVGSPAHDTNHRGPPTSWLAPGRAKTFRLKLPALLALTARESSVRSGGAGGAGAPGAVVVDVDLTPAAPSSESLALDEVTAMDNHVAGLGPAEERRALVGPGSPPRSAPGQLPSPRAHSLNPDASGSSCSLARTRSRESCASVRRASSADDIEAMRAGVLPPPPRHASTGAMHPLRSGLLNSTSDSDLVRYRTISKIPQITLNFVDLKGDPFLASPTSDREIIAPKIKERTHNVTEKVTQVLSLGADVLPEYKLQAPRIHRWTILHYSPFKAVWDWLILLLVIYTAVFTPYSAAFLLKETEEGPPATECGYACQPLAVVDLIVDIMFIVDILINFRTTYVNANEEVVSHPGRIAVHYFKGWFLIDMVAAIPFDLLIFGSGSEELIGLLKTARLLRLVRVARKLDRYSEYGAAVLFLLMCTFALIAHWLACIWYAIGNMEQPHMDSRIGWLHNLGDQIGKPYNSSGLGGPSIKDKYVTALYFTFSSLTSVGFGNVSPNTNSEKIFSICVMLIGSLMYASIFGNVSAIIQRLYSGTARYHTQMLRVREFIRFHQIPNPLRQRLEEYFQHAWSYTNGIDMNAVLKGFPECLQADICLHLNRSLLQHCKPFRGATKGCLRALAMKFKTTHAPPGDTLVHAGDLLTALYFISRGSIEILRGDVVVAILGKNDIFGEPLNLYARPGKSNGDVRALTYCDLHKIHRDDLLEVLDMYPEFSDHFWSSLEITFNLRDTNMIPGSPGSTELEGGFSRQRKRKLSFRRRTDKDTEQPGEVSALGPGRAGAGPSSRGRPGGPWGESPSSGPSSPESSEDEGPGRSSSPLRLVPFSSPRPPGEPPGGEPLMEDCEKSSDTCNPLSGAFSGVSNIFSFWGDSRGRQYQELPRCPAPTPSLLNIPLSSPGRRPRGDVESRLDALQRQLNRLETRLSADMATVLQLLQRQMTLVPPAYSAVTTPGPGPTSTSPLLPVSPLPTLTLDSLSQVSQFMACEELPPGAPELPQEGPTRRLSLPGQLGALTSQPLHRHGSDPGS
structure (smiles),measurement,setting,value
"COCc1nn(Cc2ccc(Cn3ccccc3=O)cc2)cc1C(=O)NCc1cc(OC)ccc1F [Compound 13l, COCc1nn(cc1C(=O)NCc1cc(ccc1F)OC)Cc1ccc(cc1)CN1C=CC=CC1=O]",kinetic sol 0.1 N HCl,,>0.12 mg/mL
same,kinetic sol aq assay buffer (pH 7.4),,>0.12 mg/mL
"COc1ccnc(CNC(=O)c2cn(Cc3ccc(Cn4ccccc4=O)cc3)nc2C(F)(F)F)c1F [Compound 16, COc1ccnc(c1F)CNC(=O)c1cn(nc1C(F)(F)F)Cc1ccc(cc1)CN1C=CC=CC1=O]",kinetics (in words),Human PKa,fast kinetics
same,clearance at 24 h,Rat pharmacokinetics,7.1 mL/min/kg
same,clearance at 24 h,Dog pharmacokinetics,10 mL/min/kg
same,human plasma protein binding (PPB),[1],87%
same,IC50,trypsin,> 10 µM
same,IC50,tissue kallikrein (KLK1),> 10 µM
same,IC50,factor XIa,> 10 µM
same,IC50,plasmin,> 10 µM
same,IC50,thrombin,> 10 µM
same,IC50,factor XIIa,> 10 µM
same,CYP450 panel profile (in words),panel of CYP450 enzymes,clean profiles up to the highest concentration tested
"COCc1nn(Cc2ccc(Cn3ccccc3=O)cc2)cc1C(=O)NCc1nccc(OC)c1C [Compound 14s, COCc1nn(cc1C(=O)NCc1nccc(c1C)OC)Cc1ccc(cc1)CN1C=CC=CC1=O]",solubility at 4 h,[2],> 100 µg/mL
same,clearance at 24 h,Rat pharmacokinetics,14 mL/min/kg
same,IC50,tissue kallikrein (KLK1),> 10 µM
same,IC50,factor XIa,> 10 µM
same,IC50,plasmin,> 10 µM
same,IC50,thrombin,7.5 µM
same,IC50,factor XIIa,> 10 µM
"COCc1nn(Cc2ccc(Cn3ccccc3=O)cc2)cc1C(=O)NCc1cccc(O)c1F [Compound 13g, COCc1nn(cc1C(=O)NCc1cccc(c1F)O)Cc1ccc(cc1)CN1C=CC=CC1=O]",kinetic sol 0.1 N HCl,,>0.12 mg/mL
same,kinetic sol aq assay buffer (pH 7.4),,>0.12 mg/mL
"COCc1nn(Cc2ccc(Cn3ccccc3=O)cc2)cc1C(=O)NCc1c(C#N)ccc(OC)c1F [Compound 13k, COCc1nn(cc1C(=O)NCc1c(c(ccc1C#N)OC)F)Cc1ccc(cc1)CN1C=CC=CC1=O]",clearance at 24 h,Rat pharmacokinetics,16 mL/min/kg
same,kinetic sol 0.1 N HCl,,>0.12 mg/mL
same,kinetic sol aq assay buffer (pH 7.4),,>0.12 mg/mL
"COCc1nn(Cc2ccc(Cn3ccccc3=O)cc2)cc1C(=O)NCc1cccc(OC(F)F)c1F [Compound 13i, COCc1nn(cc1C(=O)NCc1cccc(c1F)OC(F)F)Cc1ccc(cc1)CN1C=CC=CC1=O]",IC50,Human PKa,0.15 µM
same,LLE,Human PKa; lipophilic ligand efficiency,4.2
same,kinetic sol aq assay buffer (pH 7.4),,>0.12 mg/mL
same,solubility kinetic,physchem,63 to 120 µg/mL
"COCc1nn(Cc2ccc(Cn3ccccc3=O)cc2)cc1C(=O)NCc1c(F)ccc(OC)c1F [Compound 13b, COCc1nn(cc1C(=O)NCc1c(ccc(c1F)OC)F)Cc1ccc(cc1)CN1C=CC=CC1=O]",kinetics (in words),Human PKa,fast kinetics
same,LLE,Human PKa; lipophilic ligand efficiency,5.4
same,clearance at 24 h,Rat pharmacokinetics,12.8 mL/min/kg
same,clearance at 24 h,Dog pharmacokinetics,11.5 mL/min/kg
same,kinetic sol 0.1 N HCl,,>0.12 mg/mL
same,kinetic sol aq assay buffer (pH 7.4),,>0.12 mg/mL
"COc1cccc(CNC(=O)c2cn(Cc3ccc(Cn4ccccc4=O)cc3)nc2C2CC2)c1F [Compound 13f, COc1cccc(c1F)CNC(=O)c1cn(nc1C1CC1)Cc1ccc(cc1)CN1C=CC=CC1=O]",LLE,Human PKa; lipophilic ligand efficiency,4.4
same,kinetic sol 0.1 N HCl,,>0.11 mg/mL
same,kinetic sol aq assay buffer (pH 7.4),,0.058–0.11 mg/mL
"COCc1nn(Cc2ccc(Cn3ccccc3=O)cc2)cc1C(=O)NCc1cccc(OC)c1F [Compound 13d, COCc1nn(cc1C(=O)NCc1cccc(c1F)OC)Cc1ccc(cc1)CN1C=CC=CC1=O]",kinetic sol 0.1 N HCl,,>0.12 mg/mL
same,kinetic sol aq assay buffer (pH 7.4),,>0.12 mg/mL
"COCc1nn(Cc2ccc(Cn3ccccc3=O)cc2)cc1C(=O)NCc1c(Cl)ccc(OC)c1F [Compound 13j, COCc1nn(cc1C(=O)NCc1c(ccc(c1F)OC)Cl)Cc1ccc(cc1)CN1C=CC=CC1=O]",kinetic sol 0.1 N HCl,,>0.12 mg/mL
same,kinetic sol aq assay buffer (pH 7.4),,>0.12 mg/mL
"COCc1nn(Cc2ccc(Cn3ccccc3=O)cc2)cc1C(=O)NCc1nccc(OC)c1F [Compound 14w, 3-Methoxymethyl-1-[4-(2-oxo-2H-pyridin-1-ylmethyl)-benzyl]-1H-pyrazole-4-carboxylic Acid (3-Fluoro-4-methoxy-pyridin-2-ylmethyl)-amide]",kinetics (in words),Human PKa,fast kinetics
same,IC50,tryptase,> 10 µM
same,pKa,[3],3.6
same,clearance at 24 h,Rat pharmacokinetics,11.7 mL/min/kg
same,clearance at 24 h,Dog pharmacokinetics,8.7 mL/min/kg
same,human plasma protein binding (PPB),[1],77%
same,Non-GLP Ames,bacterial mutagenicity,no risk of genotoxicity
same,IC50,trypsin,> 10 µM
same,IC50,trypsin; listed as Sebetralstat,> 40 µM
same,IC50,factor Xa,> 10 µM
same,CYP450 panel profile (in words),panel of CYP450 enzymes,clean profiles up to the highest concentration tested
same,inhibition of hERG channel (in words),hERG channel,no significant inhibition
"COc1cccc(CNC(=O)c2cn(Cc3ccc(Cn4ccccc4=O)cc3)nc2N(C)C)c1F [Compound 13e, COc1cccc(c1F)CNC(=O)c1cn(nc1N(C)C)Cc1ccc(cc1)CN1C=CC=CC1=O]",kinetic sol 0.1 N HCl,,>0.12 mg/mL
same,kinetic sol aq assay buffer (pH 7.4),,>0.12 mg/mL
"Nc1nccc2cc(CNC(=O)c3cnn(Cc4ccc(Cn5ccccc5=O)cc4)c3)ccc12 [Compound 6, Nc1nccc2cc(ccc12)CNC(=O)c1cnn(c1)Cc1ccc(cc1)CN1C=CC=CC1=O]",Papp A→B,in vitro [4],2 ×10⁻⁶ cm/s
same,microsomal CLint,in vitro [5],37 µL/min/mg
"CCc1cccc(CNC(=O)c2cn(Cc3ccc(Cn4ccccc4=O)cc3)nc2COC)c1F [Compound 13h, CCc1cccc(c1F)CNC(=O)c1cn(nc1COC)Cc1ccc(cc1)CN1C=CC=CC1=O]",LLE,Human PKa,3.7
same,kinetic sol aq assay buffer (pH 7.4),,>0.12 mg/mL
same,solubility kinetic,physchem,29 to 59 µg/mL

# Source: paper PMC9620001 (Journal of Medicinal Chemistry, 2022)
